Type in all cases: cell-based, human
Assay [1] deals with CaSki cells. Briefly: Colony formation assay, CaSki. To be noted: CaSki, 2.5, 5 and 7.5 μM. How it is done:
FIGS. 5A and 5B show representative colony images of CaSki cells (FIG. 5A) and SiHa cells (FIG. 5B) treated with various concentrations of ORM-Br ranging from […]. FIGS. 5C and 5D represent the quantification of colony formation in CaSki cells (FIG. 5C) and SiHa cells (FIG. 5D) treated with various concentrations of ORM-Br ranging from 0 to 7.5 μM.
To determine the effect of Br-ORM on clonogenic potential of CaSki and SiHa cells, a colony formation assay was performed. In brief, 500 cells were seeded per well in a 6-well plate and allowed to stand for the next three days. The cells were treated with Br-ORM with different concentrations (2.5, 5, and 7.5 μM) for seven days and then followed by normal growth media. […] Colonies were fixed in methanol, stained with haematoxylin, and counted using UVP 810 software.
FIG. 13. […] Cell viability was assessed by MTS assay. […] Bar graphs indicating quantification of colony formation in CaSki (i), and SiHa (ii) cells of cervical cancer with respect to vehicle control. […] Briefly, cervical cancer cells were treated with Br-ORM (10 μM) for 24 hours and the apoptosis inducing effect of Br-ORM was analyzed by Annexin V staining. […] The equal loading of protein in each lane was determined by probing the blots with β-actin antibody (FIG. 13F). […] Br-ORM arrests cell cycle in G1/S phase as determined by flow cytometry. […]

Assay [2] deals with CaSki cells. Briefly: Cell invasion assay (Matrigel / Boyden chamber), CaSki. As to conditions: 24 hours. How it is done:
FIGS. 8A and 8B show the effect of ORM-Br on invasion of CaSki (FIG. 8A) and SiHa (FIG. 8B) cell lines in Boyden chamber and xCELLigence assay. The images represent the invaded cells of control and ORM-Br-treated CaSki and SiHa cells as determined by Boyden Chamber kit. The magnification was at 20 for the images of FIGS. 8A and 8B.
Cell invasion assay was performed using BD Biocoat Matrigel Invasion Chambers (BD Biosciences, San Jose, CA, USA), as has been described in the art. Cells were treated with Br-ORM followed by incubation for 24 hours. Cells were fixed using methanol and were stained with crystal violet. […]
FIG. 14. […] Effect of Br-ORM on cell migration of cervical cancer cells as determined by agarose bead (FIG. 14A), scratch wound healing (FIG. 14B), and Boyden chamber assay (FIG. 14C). […] Closure of wound was determined and photographed using phase contrast microscopy. […] Bar graph represent the quantification of migrated CaSki cells of control and Br-ORM treated groups (FIG. 14C(ii)). […] Effect of Br-ORM treatment on invasion of CaSki cells as determined by a commercially available kit (BD Biosciences) as described in materials and methods. In brief, 24 hours post-treatment of Br-ORM, invaded cells were fixed, stained and counted. […] Bar graph represent the quantification of invaded CaSki cells of control and Br-ORM treated groups (FIG. 14D(ii)). […]

The subject of assay [3] is β-catenin in SiHa cells. Briefly: β-catenin degradation with cyclohexamide (western blot, pulse chase), SiHa. To be noted: with cyclohexamide (CHX: 50 mg), ORM-Br. As to the method:
A western blot analysis was conducted to determine the effect of ORM-Br on β-catenin degradation. […] Protein lysates were prepared and subjected to western blot analysis to ascertain the levels of protein of β-catenin in cyclohexamide-treated cells (FIG. 3A) and in ORM-Br and cyclohexamide-treated cells (FIG. 3B).
For orientation: A western blot detects proteins with antibodies after separation by electrophoresis.

On to `COc1ccc2c(c1)OC(C)(C)C(c1ccc(Br)cc1)C2c1ccc(OCCN2CCCC2)cc1` (centres unmarked) [ORM-Br], for which the “colony formation (clonogenic potential)” value in assay [1] was “suppresses the clonogenic potential”; in assay [1] (listed as Br-ORM) it was “significantly decreased the number of colonies”. In addition, the cell invasion entry is “inhibits the invasion” in assay [2] and “effectively inhibited invasion” in assay [2] (listed as Br-ORM). In assay [3], the “protein levels of β-catenin relative to cyclohexamide treatment” value is “significant decrease in protein levels of β-catenin”.

(Values after patent US20240208950A1, “COMPOSITIONS AND METHODS FOR TREATMENT OF CERVICAL AND OVARIAN CANCER” (SOUTH DAKOTA BOARD OF REGENTS, priority 2021, published 2024).)
